Source: patent US9174995B2, “Pyrrolotriazinone derivatives” (Merck Patent GmbH, priority 2012, dated 2015)
pEC50, pIC50: −log10 of the molar value.

Experiments:
[1] = molecular target: T1, GST-tagged Tankyrase-2 (873-1166 aa) (Homo sapiens, UniProt Q9H2K2); test: Tankyrase 2 autoparsylation assay (HTRF enzyme assay); format: biochemical
T1 construct: GST-tagged Tankyrase-2 (873-1166 aa)
Experimental: (§1) Biochemical Activity Testing of Tankyrase 1 and 2: Autoparsylation Assay
(§2) The autoparsylation assay is run in two steps: the enzymatic reaction in which GST-tagged Tankyrase-1, resp Tankyrase-2 transferred biotinylated ADP-ribose to itself from biotinylated NAD as co-substrate and the detection reaction where a time resolved FRET between cryptate labelled anti-GST bound to the GST tag of the enzyme and Xlent® labelled-streptavidin bound the biotin-parsylation residue is analysed. The autoparsylation activity was detectable directly via the increase in HTRF signal.
(§3) The autoparsylation assay is performed as 384-well HTRF® (Cisbio, Codolet, France) assay format in Greiner low volume nb 384-well microtiter plates and is used for high throughput screen. 250 nM GST-tagged Tankyrase-1 (1023-1327 aa), respectively about 250 nM GST-tagged Tankyrase-2 (873-1166 aa) and 5 μM bio-NAD (Biolog, Life science Inst., Bremen, Germany) as co-substrate are incubated in a total volume of 5 μl (50 mM HEPES, 4 mM Mg-chloride, 0.05% Pluronic F-68, 1.4 mM DTT, 0.5% DMSO, pH 7.7) in the absence or presence of the test compound (10 dilution concentrations) for 90 min at 30° C. The reaction is stopped by the addition of 1 μl 50 mM EDTA solution. 2 μl of the detection solution (1.6 μM SA-Xlent® (Cisbio, Codolet, France), 7.4 nM Anti-GST-K® (Eu-labelled anti-GST, Cisbio, Codolet, France) in 50 mM HEPES, 800 mM KF, 0.1% BSA, 20 mM EDTA, 0.1% CHAPS, pH 7.0) are added. After 1 h incubation at room temperature the HTRF is measured with an Envision multimode reader (Perkin Elmer LAS Germany GmbH) at excitation wavelength 340 nm (laser mode) and emission wavelengths 615 nm and 665 nm. The ratio of the emission signals is determined. The full value used is the inhibitor-free reaction. The pharmacological zero value used is XAV-939 (Tocris) in a final concentration of 5 μM. The inhibitory values (IC50) are determined using either the program Symyx Assay Explorer® or Condosseo® from GeneData.

[2] = molecular target: T2, GST-tagged Tankyrase-1 (1023-1327 aa) (Homo sapiens, UniProt O95271); test: Tankyrase 1 autoparsylation assay (HTRF enzyme assay); format: biochemical
T2 construct: GST-tagged Tankyrase-1 (1023-1327 aa)
T2 sequence (O95271 1023-1327): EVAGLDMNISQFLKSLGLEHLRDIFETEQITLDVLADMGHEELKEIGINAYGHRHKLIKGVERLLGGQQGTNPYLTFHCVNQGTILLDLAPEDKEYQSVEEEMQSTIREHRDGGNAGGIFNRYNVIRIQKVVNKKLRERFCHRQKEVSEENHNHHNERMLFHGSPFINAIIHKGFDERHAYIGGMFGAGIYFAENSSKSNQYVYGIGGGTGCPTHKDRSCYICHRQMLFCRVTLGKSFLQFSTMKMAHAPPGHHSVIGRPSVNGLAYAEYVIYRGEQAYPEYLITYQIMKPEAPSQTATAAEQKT
Experimental: as §1, §2, §3

[3] = system: Tankyrases; test: Cellular inhibition of Tankyrase: increase of Axin2 level in DLD1 cells (Luminex); format: cell-based; details: 24 hours, read-out: EC50 tankyrase ½ (cell assay)
Experimental: Measurement of Cellular Inhibition of Tankyrase
Since Tankyrases have been described to modulate cellular level of Axin2 (Huang et al., 2009; Nature) the increase of Axin2 level is used as readout for determination of cellular inhibition of Tankyrases in a Luminex based assay.
Cells of the colon carcinoma cell line DLD1 are plated in 96 well plates with 1.5×10^4 cells per well. Next day, cells are treated with a serial dilution of test compound in seven steps as triplicates with a final DMSO concentration of 0.3%. After 24 hours, cells are lysed in lysis buffer (20 mM Tris/HCl pH 8.0, 150 mM NaCl, 1% NP40, 10% Glycerol) and lysates are cleared by centrifugation through a 96 well filter plate (0.65 μm). Axin2 protein is isolated from cell lysates by incubation with a monoclonal anti-Axin2 antibody (R&D Systems #MAB6078) that is bound to fluorescent carboxybeads. Then, bound Axin2 is specifically detected with a polyclonal anti-Axin2 antibody (Cell Signaling #2151) and an appropriate PE-fluorescent secondary antibody. The amount of isolated Axin2 protein is determined in a Luminex^200 machine (Luminex Corporation) according to the manufacturer's instruction by counting 100 events per well. Inhibition of Tankyrase by test compounds results in higher levels of Axin2 which directly correlates with an increase of detectable fluorescence. As controls cells are treated with solvent alone (neutral control) and with a Tankyrase reference inhibitor IWR-2 (3E-06 M) which refers as control for maximum increase of Axin2. For analysis, the obtained data are normalized against the untreated solvent control and fitted for determination of the EC50 values using the Assay Explorer software (Accelrys).

[4] = molecular target: T3, GST-tagged Tnks-1 (1023-1327 aa) (Homo sapiens, UniProt O95271); test: TNKS1 activity ELISA (autoparsylation assay); format: biochemical
T3 construct: GST-tagged Tnks-1 (1023-1327 aa, prepared in-house); made in house
T3 sequence (O95271 1023-1327): as above
Experimental: (§4) Description of the TNKS1 and TNKS2 ELISA Assay
(§5) Biochemical Activity Testing of TNKS 1 and 2: Activity ELISA (Autoparsylation Assay)
(§6) For analysis of autoparsylation activity of TNKS 1 and 2 an activity ELISA is performed: In the first step GST tagged TNKS is captured on a Glutathione coated plate. Then the activity assay with biotinylated NAD is performed in the absence/presence of the compounds. During the enzymatic reaction GST tagged TNKS transfers biotinylated ADP-ribose to itself from biotinylated NAD as co-substrate. For the detection streptavidin-HRP conjugate is added that binds to the biotinylated TNKS and is thereby captured to the plates. The amount of biotinylated resp. autoparsylated TNKS is detected with a luminescence substrate for HRP. The level of the luminescence signal correlats directly with the amount of autoparsylated TNKS and therefore with activity of TNKS.
(§7) The activity ELISA is performed in 384 well Glutathione coated microtiter plates (Express capture Glutathione coated plate, Biocat, Heidelberg, Germany). The plates are pre-equilibrated with PBS. Then the plates are incubated with 50 μl 20 ng/well GST-tagged Tnks-1 (1023-1327 aa, prepared in-house), respectively GST-tagged Tnks-2 (873-1166 aa, prepared in-house) in assay buffer (50 mM HEPES, 4 mM Mg-chloride, 0.05% Pluronic F-68, 2 mM DTT, pH 7.7) overnight at 4° C. The plates are washed 3 times with PBS-Tween-20. The wells are blocked by incubation at room temperature for 20 minutes with 50 μl blocking buffer (PBS, 0.05% Tween-20, 0.5% BSA). Afterwards the plates are washed 3 times with PBS-Tween-20. The enzymatic reaction is performed in 50 μl reaction solution (50 mM HEPES, 4 mM Mg-chloride, 0.05% Pluronic F-68, 1.4 mM DTT, 0.5% DMSO, pH 7.7) with 10 μM bio-NAD (Biolog, Life science Inst., Bremen, Germany) as co-substrate in the absence or presence of the test compound (10 dilution concentrations) for 1 hour at 30° C. The reaction is stopped by 3 times washing with PBS-Tween-20. For the detection 50 μl of 20 ng/μl Streptavidin, HRP conjugate (MoBiTec, Göttingen, Germany) in PBS/0.05%Tween-20/0.01%BSA are added and the plates are incubated for 30 minutes at room temperature. After three times washing with PBS-Tween-20 50 μl of SuperSignal ELISA Femto Maximum sensitivity substrate solution (ThermoFisherScientific (Pierce), Bonn, Germany) are added. Following a 1 minute incubation at room temperature luminescence signals are measured with an Envision multimode reader (Perkin Elmer LAS Germany GmbH) at 700 nm. The full value used is the inhibitor-free reaction. The pharmacological zero value used is XAV-939 (Tocris) in a final concentration of 5 μM. The inhibitory values (IC50) are determined using either the program Symyx Assay Explorer® or Condosseo® from GeneData.

[5] = molecular target: T4, GST-tagged Tnks-2 (873-1166 aa) (Homo sapiens, UniProt Q9H2K2); test: TNKS2 activity ELISA (autoparsylation assay); format: biochemical
T4 construct: GST-tagged Tnks-2 (873-1166 aa, prepared in-house); made in house
T4 sequence (Q9H2K2 873-1166): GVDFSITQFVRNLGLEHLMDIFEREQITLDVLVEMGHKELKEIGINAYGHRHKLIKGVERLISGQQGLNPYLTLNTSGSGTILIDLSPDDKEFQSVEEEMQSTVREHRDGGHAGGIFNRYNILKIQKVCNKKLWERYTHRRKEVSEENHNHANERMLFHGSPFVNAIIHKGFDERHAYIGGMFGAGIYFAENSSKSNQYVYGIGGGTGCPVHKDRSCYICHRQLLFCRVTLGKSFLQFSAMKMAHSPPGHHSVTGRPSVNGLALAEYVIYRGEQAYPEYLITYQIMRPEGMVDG
Experimental: as §4, §5, §6, §7

[6] = system: DLD-1-cancer cells; details: cited from earlier work

T1 sequence (Q9H2K2 873-1166): as above

SMILES	pIC50 [1]	pIC50 [2]	pEC50 [3]	pIC50 [4]	pIC50 [5]	growth of DLD-1-cancer cells [6]
O=c1[nH]c(-c2ccc(Br)cc2)nn2cccc12 [Compound A6, 2-(4-bromo-phenyl)-3H-pyrrolo[2,1-f][1,2,4]triazin-4-one]	> 6.52	> 6.52	–	–	–	–
Cc1ccc2c(=O)[nH]c(-c3ccc(C(C)(C)O)cc3)nn12 [Compound A19, 2-[4-(1-hydroxy-1-methyl-ethyl)-phenyl]-7-methyl-3H-pyrrolo[2,1-f][1,2,4]triazin-4-one]	> 6.52	> 6.52	> 6.52	–	–	–
CC(C)(N)c1ccc(-c2nn3cccc3c(=O)[nH]2)cc1 [Compound A16, 2-[4-(1-amino-1-methyl-ethyl)-phenyl]-3H-pyrrolo[2,1-f][1,2,4]-triazin-4-one]	5.52 to 6.52	5.52 to 6.52	–	–	–	–
CC(C)(C)c1ccc(-c2nn3cccc3c(=O)[nH]2)cc1 [Compound A3, 2-(4-tert-butyl-phenyl)-3H-pyrrolo[2,1-f][1,2,4]triazin-4-one]	5.52 to 6.52	> 6.52	5.52 to 6.52	–	–	–
Cc1ccc(-c2nn3cccc3c(=O)[nH]2)cc1 [Compound A1, 2-p-tolyl-3H-pyrrolo[2,1-f][1,2,4]triazin-4-one]	> 6.52	> 6.52	–	> 6.52	> 6.52	–
CC(C)(O)c1ccc(-c2nn3c(C(F)(F)F)ccc3c(=O)[nH]2)cc1 [Compound A20, 2-[4-(1-hydroxy-1-methyl-ethyl)-phenyl]-7-trifluoromethyl-3H-pyrrolo[2,1-f][1,2,4]triazin-4-one]	4.30 to 5.52	5.52 to 6.52	–	–	–	–
Cc1cc2c(=O)[nH]c(-c3ccc(C(C)(C)O)cc3)nn2n1 [Compound A17, 6-[4-(1-hydroxy-1-methyl-ethyl)-phenyl]-2-methyl-5H-1,5,7,7a-tetraaza-inden-4-one]	5.52 to 6.52	5.52 to 6.52	4.30 to 5.52	5.52 to 6.52	5.52 to 6.52	–
COC(=O)c1ccc(-c2nn3cccc3c(=O)[nH]2)cc1 [Compound A2, 4-(4-oxo-3,4-dihydro-pyrrolo[2,1-f][1,2,4]triazin-2-yl)-benzoic acid methyl ester]	> 6.52	> 6.52	5.52 to 6.52	–	–	–
Oc1nc(-c2ccc(C(F)(F)F)cc2)nc2c1CSCC2 [XAV939]	–	–	–	–	–	inhibits growth
